SMILES strings stand for the structures.

Holding throughout (type): cell-based
One test deals with MCF7-WT cells. Briefly: In vitro anti-proliferation assay (CellTiter-Glo viability), MCF7-WT cells. As to conditions: Homo sapiens, MCF7, 192 h, MCF7-WT cells supplemented with 0.1 nM b-estradiol; viability on day 8; relative IC50. The protocol: (§1) Test: In vitro anti-proliferation assay
(§2) Said test involves measuring the in vitro anti-proliferation activity of the compounds of the Table 1a.
(§3) The measurements of the anti-proliferation activities were made using MCF7-WT (ATCC), MCF7-Y537S and HCC1428-LTED cells as described hereunder.
(§4) On Day 1, MCF7-WT and MCF7-Y537S (Mol Cancer Ther. 2021 20(2):250-262), and HCC1428-LTED (J Clin Invest. 2010; 120(7):2406-2413) cells, were seeded at 2000 (WT and LTED) and 500 (Y537S) cells/well in phenol red free IMEM (Corning, 110-026-CV) with 5% Charcoal stripped-FBS and incubated overnight 37° C. and 5% CO2.
(§5) On day 2, compounds were tested in triplicate in 10-point dose response (1:3 serial dilutions with a top concentration starting 300 nM); DMSO for upper limit (negative control) and staurosporine (1 uM) for lower limit (positive control) were also included. MCF7-WT cells were then supplemented with final 0.1 nM b-estradiol. After treating the cells, the assay plates were transferred back in the incubator at 37° C. and 5% CO2.
(§6) On day 8, cell viability was measured per vendor recommendations (CellTiter-Glo, Promega). Relative IC50 measurements were calculated as follow using a 4-parameter logistic derived from Levenburg Marquardt algorithm (IDBS XL Model 205 fit within A-base).

Another test relates to HCC1428-LTED cells. The test is described as follows: In vitro anti-proliferation assay (CellTiter-Glo viability), HCC1428-LTED cells. The settings on record: Homo sapiens, HCC1428, 192 h, viability on day 8, relative IC50, read-out: HCC 1428 IC50. The protocol: as §1, §2, §3, §4, §5, §6
A further test deals with MCF7-Y537S cells. Briefly: In vitro anti-proliferation assay (CellTiter-Glo viability), MCF7-Y537S cells. The settings on record: Homo sapiens, MCF7, 192 h, viability on day 8, relative IC50. The protocol: as §1, §2, §3, §4, §5, §6

Take `CN(C)C(=O)/C=C/CN1CC[C@H](Nc2ccc(C3=C(c4ccc(Cl)cc4Cl)CCCc4cc(C(=O)O)ccc43)cc2)C1` [Compound 16, (S,E)-8-(2,4-dichlorophenyl)-9-(4-((1-(4-(dimethylamino)-4-oxobut-2-en-1-yl)pyrrolidin-3-yl)amino)phenyl)-6,7-dihydro-5H-benzo[7]annulene-3-carboxylic acid]: the IC50 with MCF7-WT cells stood at 37 nM; in the test on HCC1428-LTED cells, 33 nM; in the test with MCF7-Y537S cells it was 174 nM.
For `CN(C)C(=O)/C=C/CN1CC[C@@H](Nc2ccc(C3=C(c4ccc(Cl)cc4Cl)CCCc4cc(C(=O)O)ccc43)cc2)C1` [Compound 17, (R,E)-8-(2,4-dichlorophenyl)-9-(4-((1-(4-(dimethylamino)-4-oxobut-2-en-1-yl)pyrrolidin-3-yl)amino)phenyl)-6,7-dihydro-5H-benzo[7]annulene-3-carboxylic acid], in that order: 10 nM, 1 nM and 138 nM.
Turning to `CN(C)C(=O)/C=C/CN1CC/C(=C/c2ccc(C3=C(c4ccc(Cl)cc4Cl)CCCc4cc(C(=O)O)ccc43)cc2)C1` [Compound 20, 8-(2,4-dichlorophenyl)-9-(4-((Z)-(1-((E)-4-(dimethylamino)-4-oxobut-2-en-1-yl)pyrrolidin-3-ylidene)methyl)phenyl)-6,7-dihydro-5H-benzo[7]annulene-3-carboxylic acid], the IC50 in the test with MCF7-WT cells was 41 nM; in the test on HCC1428-LTED cells, 1 nM; with MCF7-Y537S cells, no less than 500 nM.
For `CN(C)C(=O)/C=C/CN1CC(Nc2ccc(C3=C(c4ccc(Cl)cc4Cl)CCCc4cc(C(=O)O)ccc43)cc2)C1` [Compound 21, (E)-8-(2,4-dichlorophenyl)-9-(4-((1-(4-(dimethylamino)-4-oxobut-2-en-1-yl)azetidin-3-yl)amino)phenyl)-6,7-dihydro-5H-benzo[7]annulene-3-carboxylic acid] the same measures were 28 nM, 2.1 nM and no less than 500 nM.
For `CN(C)C(=O)/C=C/CNCCOc1ccc(C2=C(c3ccc(Cl)cc3Cl)CCCc3cc(C(=O)O)ccc32)cc1` [Compound 22, (E)-8-(2,4-dichlorophenyl)-9-(4-(2-((4-(dimethylamino)-4-oxobut-2-en-1-yl)amino)ethoxy)phenyl)-6,7-dihydro-5H-benzo[7]annulene-3-carboxylic acid] the same measures were 11 nM, 0.6 nM and 184 nM.
For `CN(C)C(=O)/C=C/CN1CC[C@H](Oc2ccc(C3=C(c4ccc(Cl)cc4Cl)CCCc4cc(O)ccc43)cc2)C1` [Compound 23, (S,E)-4-(3-(4-(8-(2,4-dichlorophenyl)-3-hydroxy-6,7-dihydro-5H-benzo[7]annulen-9-yl)phenoxy)pyrrolidin-1-yl)-N,N-dimethylbut-2-enamide], in that order: 26 nM, 0.03 nM and 23 nM.
On to `CN(C)C(=O)/C=C/CN1CC[C@H](Oc2ccc(C3=C(c4ccc(Cl)cc4Cl)CCOc4cc(C(=O)O)ccc43)cc2)C1` [Compound 24, (S,E)-4-(2,4-dichlorophenyl)-5-(4-((1-(4-(dimethylamino)-4-oxobut-2-en-1-yl)pyrrolidin-3-yl)oxy)phenyl)-2,3-dihydrobenzo[b]oxepine-8-carboxylic acid], for which the IC50 in the test with MCF7-WT cells is 160 nM; in the test with HCC1428-LTED cells it was 4.4 nM; in the test with MCF7-Y537S cells it was no less than 500 nM.
Regarding `CN(C)C(=O)/C=C/CN1CC[C@H](Oc2ccc(C3=C(c4ccc(Cl)cc4Cl)CCc4cc(C(=O)O)ccc43)cc2)C1` [Compound 25, (S,E)-6-(2,4-dichlorophenyl)-5-(4-((1-(4-(dimethylamino)-4-oxobut-2-en-1-yl)pyrrolidin-3-yl)oxy)phenyl)-7,8-dihydronaphthalene-2-carboxylic acid], the values for the IC50 in the test with MCF7-WT cells, with HCC1428-LTED cells and with MCF7-Y537S cells were 300 nM, 17 nM and no less than 500 nM, respectively.
For `CN(C)C(=O)/C=C/CN1CC[C@H](Oc2ccc(C3=C(c4ccc(Cl)cc4Cl)CCCc4ccccc43)cc2)C1` [Compound 26, (S,E)-4-(3-(4-(8-(2,4-dichlorophenyl)-6,7-dihydro-5H-benzo[7]annulen-9-yl)phenoxy)pyrrolidin-1-yl)-N,N-dimethylbut-2-enamide] the same measures were 21 nM, 0.4 nM and 193 nM.
In the case of `CN(C)C(=O)/C=C/CN1CC[C@H](Oc2ccc(C3=C(c4ccc(Cl)cc4Cl)CCSc4cc(O)ccc43)cc2)C1` [Compound 27, (S,E)-4-(3-(4-(4-(2,4-dichlorophenyl)-8-hydroxy-2,3-dihydrobenzo[b]thiepin-5-yl)phenoxy)pyrrolidin-1-yl)-N,N-dimethylbut-2-enamide], the IC50 in the test with MCF7-WT cells worked out at 2.9 nM; with HCC1428-LTED cells, 0.02 nM; with MCF7-Y537S cells, 33 nM.

For the origin of these results see patent publication US20250250231A1, “NOVEL SUBSTITUTED 4-AMINO-4-OXO-BUT-2-ENYL DERIVATIVES, PROCESSES FOR THEIR PREPARATION AND THERAPEUTIC USES THEREOF” (SANOFI, priority 2022, published 2025).
